Measured values reported in patent publication US11104656B2, “Method for purifying and removing color of FDCA” (Nederlandse Organisatie voor …, priority 2017, dated 2021).

Tests used:
Type in all cases: physicochemical
[1] = Solubility of FDCA in water at different temperatures; conditions: water as solvent, temperatures beyond 130° C.
Source text: The inventors realized that it is desirable for FDCA crystallization to use superheating for dissolving FDCA. FDCA may show a significant increase in solubility above superheating conditions. […] The byproduct is colored and its formation is therefore undesirable both in view of purity and color.

[2] = Influence of heating time on color of the precipitate after cooling; conditions: 200 mg FDCA in 2 mL H2O, 140-180° C., 5-15 min, prolonged heating
Experimental: In another experiment, the influence of heating time on the color of the precipitate after cooling was investigated. A total of nine samples were prepared by mixing 200 mg of FDCA in 2 mL H2O. [table]

[3] = Influence of heating time on decomposition (FDCA in water at 130° C.); conditions: for appearance of solution on heating (decomposition): deionised water
Experimental: In a reaction vessel, 60 mg of FDCA was dissolved over time in 3 ml of deionised water at a temperature of 130° C. On heating, around 5 minutes was needed to allow the solid to dissolve. Following this, samples were taken at 12, 15, 18 and 21 minutes. The samples were photographed at these intervals (FIG. 4).

O=C(O)c1ccc(C(=O)O)o1 [FDCA, 2,5-furandicarboxylic acid]
solubility of FDCA [1]: increases dramatically
by-product formation after heating and cooling [2]: formation of black solid by-products
time needed to allow the solid to dissolve ([3]; 60 mg FDCA in 3 ml deionised water): around 5 minutes
appearance of solution on heating (decomposition) ([3]; after 12 minutes): a light solution is observed
appearance of solution on heating (decomposition) ([3]; after 15 minutes): some black solid by-products started to form
appearance of solution on heating (decomposition) ([3]; after 18 minutes): clearly darker brown in color
